Assay results: ChEMBL document CHEMBL2331182, “Discovery of a small-molecule antiviral targeting the HIV-1 matrix protein” (Bioorg Med Chem Lett, 2013)

Assays:
[1] = molecular target: T1, Structural capsid protein (Human immunodeficiency virus 1, UniProt Q76129); assay: Inhibition of HIV1 capsid
[2] = molecular target: T1, Structural capsid protein; assay: Binding affinity to HIV1 capsid

T1 sequence (Q76129 whole entry): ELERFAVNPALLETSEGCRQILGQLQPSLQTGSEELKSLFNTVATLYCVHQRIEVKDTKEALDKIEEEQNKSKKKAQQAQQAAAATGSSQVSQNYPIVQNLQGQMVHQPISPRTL

## Cc1ccc(NC(=O)NCCSCc2ccc(CN(C)C)o2)cc1Cl
[1]
  IC50: 60 µM
[2]
  Kd: 800 µM
